Measured values published in ChEMBL document CHEMBL1148033, “Four new C16 1,2-dioxene-polyketides from the sponge Plakortis aff. simplex” (J Nat Prod, 1993).

Test system: P388
Assay: Cytotoxicity against mouse P388 cells
Assay type: functional, cell-based

Structure (SMILES) | IC50 [µg/mL]
CCCC1C=CC(CCC[C@]2(OC)C=C[C@@H](CC(=O)OC)OO2)OO1 (some centres not stated) | < 0.1
CCC/C=C/C=C/CCC[C@]1(OC)C=C[C@@H](CC(=O)OC)OO1 | < 0.1
